{"source": "patent US10130655B2", "about": "“Composition and method for pre-surgical skin disinfection” (GOJO INDUSTRIES, INC., priority 2006, dated 2018)", "test": "Irritation potential, independent laboratory testing (Total Cumulative Irritation, Berger & Bowman)", "conditions": "in vivo", "text": "Independent laboratory testing compared irritation potential of commercial products, controls, and a disinfecting composition according to the present invention."}
{"smiles": "CCCCCCCCCCCCOS(=O)(=O)[O-].[Na+]", "note": "[Sodium Lauryl Sulfate]", "values": [{"measurement": "Berger & Bowman Classification", "result": "Possibly Mild in use"}, {"measurement": "CIT Score (Total Cumulative Irritation)", "result": 1321.0}]}
